Data reported in PMC2939729 (Cancer cell, 2010).

Tests used:
[1] = biological target: BMK1 (Homo sapiens, UniProt Q13164); assay: EGF-induced BMK1 activation in HeLa cells; type: cell-based; conditions: 1 μM compound for one hour, EGF 17 min
[2] = test system: ERK1/2; assay: EGF-induced ERK1/2 activation in HeLa cells; type: cell-based, human; conditions: 1 μM compound for one hour, EGF 17 min

Sequence of BMK1 (Q13164 whole entry): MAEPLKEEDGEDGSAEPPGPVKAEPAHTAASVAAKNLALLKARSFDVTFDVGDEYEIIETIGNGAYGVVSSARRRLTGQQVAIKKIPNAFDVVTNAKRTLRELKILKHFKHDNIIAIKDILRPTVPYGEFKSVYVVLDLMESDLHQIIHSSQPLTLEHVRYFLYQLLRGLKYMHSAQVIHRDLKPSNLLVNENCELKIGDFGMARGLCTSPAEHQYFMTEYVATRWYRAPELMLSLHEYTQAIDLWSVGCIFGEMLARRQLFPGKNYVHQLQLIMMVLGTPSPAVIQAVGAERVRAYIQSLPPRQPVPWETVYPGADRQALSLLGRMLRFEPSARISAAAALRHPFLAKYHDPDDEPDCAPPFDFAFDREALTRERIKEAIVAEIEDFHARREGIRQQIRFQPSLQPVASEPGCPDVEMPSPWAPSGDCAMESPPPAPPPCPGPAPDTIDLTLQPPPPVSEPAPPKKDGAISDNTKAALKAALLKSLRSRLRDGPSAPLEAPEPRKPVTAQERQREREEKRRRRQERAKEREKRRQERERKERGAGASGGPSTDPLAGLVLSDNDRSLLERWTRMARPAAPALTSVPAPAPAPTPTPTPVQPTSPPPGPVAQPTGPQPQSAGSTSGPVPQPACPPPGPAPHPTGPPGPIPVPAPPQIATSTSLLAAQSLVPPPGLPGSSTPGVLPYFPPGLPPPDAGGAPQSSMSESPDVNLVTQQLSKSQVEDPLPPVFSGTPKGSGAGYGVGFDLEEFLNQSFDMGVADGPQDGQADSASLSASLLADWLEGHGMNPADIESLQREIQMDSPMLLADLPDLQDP

SMILES: O=C(NOCC1CC1)c1ccc(F)c(F)c1Nc1ccc(I)cc1Cl [PD184352, reference compound]
- Growth factor-induced activation of cellular BMK1 [1]: not BMK1 activation
- Growth factor-induced activation of cellular ERK1/2 [2]: only blocked ERK1/2
